# In US20250235434A1, “RIFABUTIN ANALOGS FOR THE TREATMENT OF DISEASE” (BIOVERSYS AG, priority 2022, published 2025):
# Where two headings read alike, the source gives them in different places.
# Legend:
# Type in all cases: cell-based
# [1] = tested on: S. aureus (UAMS-1625 strain); assay: MIC by broth microdilution against S. aureus; details: Staphylococcus aureus, 20 h, read-out: MIC S. aureus
# M. xenopi (ATCC 19250) = assay: MIC against M. xenopi (resazurin assay); details: Mycobacterium xenopi, ATCC19250, 168 h, Middlebrook 7H9 + ADC, 90% growth inhibition, 7 days
# [2] = tested on: M. abscessus (ATCC 19977); assay: MIC by broth microdilution against M. abscessus; details: Mycobacteroides abscessus
# M. kansasii (ATCC 12478) = assay: MIC against M. kansasii (resazurin assay); details: Mycobacterium kansasii, ATCC12478, 168 h, Middlebrook 7H9 + ADC, 90% growth inhibition, 7 days
# [3] = tested on: M. tuberculosis H37Rv (ATCC 27294); assay: microbe, parasite or virus in culture; details: Mycobacterium tuberculosis, 120 h
# [4] = tested on: M. smegmatis (ATCC 700084); assay: MIC against M. smegmatis (resazurin assay); details: Mycolicibacterium smegmatis, ATCC700084, Middlebrook 7H9 + ADC, 90% growth inhibition, 20 h
# [5] = tested on: A. baumannii (HUMC1 strain); assay: MIC by broth microdilution against A. baumannii; details: Acinetobacter baumannii, RPMI medium supplemented with 10% FCS, 35° C. for 20 hours, visual reading
# M. avium (ATCC 25291) = assay: MIC against M. avium (resazurin assay); details: Mycobacterium avium, ATCC25291, 168 h, Middlebrook 7H9 + ADC, 90% growth inhibition, 7 days
# [6] = ATCC19977, 20 h, ATCC 19977, Middlebrook 7H9 broth with ADC supplement, visual reading, read-out: MIC M. abscessus
# [7] = ATCC19977, tested M. abscessus strains, read-out: MIC value on M. abscessus
SMILES,MIC [1] [µg/mL],MIC (M. xenopi (ATCC 19250)) [µg/mL],"MIC [2, 6] [µg/mL]","MIC [2, 7] [µg/mL]",MIC (M. kansasii (ATCC 12478)) [µg/mL],MIC [3] [µg/mL],MIC [4] [µg/mL],MIC [5] [µg/mL],MIC (M. avium (ATCC 25291)) [µg/mL],"MIC ([2]; ATCC19977, 20 h, read-out: MIC M. abscessus) [µg/mL]"
CO[C@H]1/C=C/O[C@@]2(C)Oc3c(C)c(O)c4c(c3C2=O)C2=NC3(CCN(CC(C)C)CC3)NC2=C(NC(=O)/C(C)=C\C=C\[C@H](C)[C@H](O)[C@@H](C)[C@@H](O)[C@@H](C)[C@H](OC(C)=O)[C@@H]1C)C4=O [Rifabutin],0.016,0.01,8,8,0.001,0.0003,0.14,≤ 0.002,0.15,
CO[C@H]1/C=C/O[C@@]2(C)Oc3c(C)c(O)c4c(c3C2=O)C2=NC3(CCN(CC(C)C)CC3)NC2=C(NC(=O)/C(C)=C\C=C\[C@H](C)[C@H](O)[C@@H](C)[C@@H](O)[C@@H](C)[C@H](OC(=O)CNCC(C)C)[C@@H]1C)C4=O [Compound 17],0.06,,4,,,,,0.008,,
CO[C@H]1/C=C/O[C@@]2(C)Oc3c(C)c(O)c4c(c3C2=O)C2=NC3(CCN(CC(C)C)CC3)NC2=C(NC(=O)/C(C)=C\C=C\[C@H](C)[C@H](O)[C@@H](C)[C@@H](O)[C@@H](C)[C@H](OC(=O)CN2CCC(Cc3ccccc3)CC2)[C@@H]1C)C4=O [Compound 21],4,,2,,,,,0.125,,
CO[C@H]1/C=C/O[C@@]2(C)Oc3c(C)c(O)c4c(c3C2=O)C2=NC3(CCN(CC(C)C)CC3)NC2=C(NC(=O)/C(C)=C\C=C\[C@H](C)[C@H](O)[C@@H](C)[C@@H](O)[C@@H](C)[C@H](OC(=O)CN2CCCCC2)[C@@H]1C)C4=O [Compound 4],0.06,,4,,,,,0.004,,
CO[C@H]1/C=C/O[C@@]2(C)Oc3c(C)c(O)c4c(c3C2=O)C2=NC3(CCN(CC(C)C)CC3)NC2=C(NC(=O)/C(C)=C\C=C\[C@H](C)[C@H](O)[C@@H](C)[C@@H](O)[C@@H](C)[C@H](OC(=O)CN2CCC3(CC2)C(=O)NCN3c2ccccc2)[C@@H]1C)C4=O [Compound 20],0.5,0.03,0.25,,0.01,0.003,0.1,0.03,0.5,
CO[C@H]1/C=C/O[C@@]2(C)Oc3c(C)c(O)c4c(c3C2=O)C2=NC3(CCN(CC(C)C)CC3)NC2=C(NC(=O)/C(C)=C\C=C\[C@H](C)[C@H](O)[C@@H](C)[C@@H](O)[C@@H](C)[C@H](OC(=O)CN2CCC(Oc3ccccc3)CC2)[C@@H]1C)C4=O [Compound 25],1,0.02,1,,0.02,0.008,0.1,0.06,0.8,
CO[C@H]1/C=C/O[C@@]2(C)Oc3c(C)c(O)c4c(c3C2=O)C2=NC3(CCN(CC(C)C)CC3)NC2=C(NC(=O)/C(C)=C\C=C\[C@H](C)[C@H](O)[C@@H](C)[C@@H](O)[C@@H](C)[C@H](OC(=O)CN2CCC(N(C)c3ccccc3)CC2)[C@@H]1C)C4=O [Compound 39],0.125,0.003,,,0.003,0.0001,0.06,≤ 0.03,0.4,0.125
CO[C@H]1/C=C/O[C@@]2(C)Oc3c(C)c(O)c4c(c3C2=O)C2=NC3(CCN(CC(C)C)CC3)NC2=C(NC(=O)/C(C)=C\C=C\[C@H](C)[C@H](O)[C@@H](C)[C@@H](O)[C@@H](C)[C@H](OC(=O)CNCC2CCN(C)CC2)[C@@H]1C)C4=O [Compound 1],0.06,,2,,,,,≤ 0.002,,
CO[C@H]1/C=C/O[C@@]2(C)Oc3c(C)c(O)c4c(c3C2=O)C2=NC3(CCN(CC(C)C)CC3)NC2=C(NC(=O)/C(C)=C\C=C\[C@H](C)[C@H](O)[C@@H](C)[C@@H](O)[C@@H](C)[C@H](OC(=O)CNCCN(C)C)[C@@H]1C)C4=O [Compound 13],0.03,,2,,,,,≤ 0.002,,
CO[C@H]1/C=C/O[C@@]2(C)Oc3c(C)c(O)c4c(c3C2=O)C2=NC3(CCN(CC(C)C)CC3)NC2=C(NC(=O)/C(C)=C\C=C\[C@H](C)[C@H](O)[C@@H](C)[C@@H](O)[C@@H](C)[C@H](OC(=O)C[n+]2ccc(C)cc2)[C@@H]1C)C4=O [Compound 38],0.25,,2,,,,,0.004,,
CC[N+](CC)(CC)CC(=O)O[C@H]1[C@H](C)[C@H](O)[C@H](C)[C@@H](O)[C@@H](C)/C=C/C=C(/C)C(=O)NC2=C3NC4(CCN(CC(C)C)CC4)N=C3c3c(c(O)c(C)c4c3C(=O)[C@@](C)(O/C=C/[C@H](OC)[C@H]1C)O4)C2=O [Compound 36],0.125,,2,,,,,≤ 0.002,,
CO[C@H]1/C=C/O[C@@]2(C)Oc3c(C)c(O)c4c(c3C2=O)C2=NC3(CCN(CC(C)C)CC3)NC2=C(NC(=O)/C(C)=C\C=C\[C@H](C)[C@H](O)[C@@H](C)[C@@H](O)[C@@H](C)[C@H](OC(=O)CNCCN2CCCCC2)[C@@H]1C)C4=O [Compound 8],0.06,,1,,,,,≤ 0.002,,
CO[C@H]1/C=C/O[C@@]2(C)Oc3c(C)c(O)c4c(c3C2=O)C2=NC3(CCN(CC(C)C)CC3)NC2=C(NC(=O)/C(C)=C\C=C\[C@H](C)[C@H](O)[C@@H](C)[C@@H](O)[C@@H](C)[C@H](OC(=O)CN2CC(Nc3ccc(F)cc3)C2)[C@@H]1C)C4=O [Compound 31],0.06,,4,,,,,0.008,,
CO[C@H]1/C=C/O[C@@]2(C)Oc3c(C)c(O)c4c(c3C2=O)C2=NC3(CCN(CC(C)C)CC3)NC2=C(NC(=O)/C(C)=C\C=C\[C@H](C)[C@H](O)[C@@H](C)[C@@H](O)[C@@H](C)[C@H](OC(=O)CN2CCC(NC(=O)OC(C)(C)C)CC2)[C@@H]1C)C4=O [Compound 27],0.125,,0.25,,,,,0.008,,
COc1cc(CC2CCN(CC(=O)O[C@H]3[C@H](C)[C@H](O)[C@H](C)[C@@H](O)[C@@H](C)/C=C/C=C(/C)C(=O)NC4=C5NC6(CCN(CC(C)C)CC6)N=C5c5c(c(O)c(C)c6c5C(=O)[C@@](C)(O/C=C/[C@H](OC)[C@H]3C)O6)C4=O)CC2)cc(C(F)(F)F)c1 [Compound 22],4,,4,,,,,0.25,,
CO[C@H]1/C=C/O[C@@]2(C)Oc3c(C)c(O)c4c(c3C2=O)C2=NC3(CCN(CC(C)C)CC3)NC2=C(NC(=O)/C(C)=C\C=C\[C@H](C)[C@H](O)[C@@H](C)[C@@H](O)[C@@H](C)[C@H](OC(=O)CN2CCC(N3CCn5ccnc5C3)CC2)[C@@H]1C)C4=O [Compound 30],0.06,,1,,,,,≤ 0.002,,
CO[C@H]1/C=C/O[C@@]2(C)Oc3c(C)c(O)c4c(c3C2=O)C2=NC3(CCN(CC(C)C)CC3)NC2=C(NC(=O)/C(C)=C\C=C\[C@H](C)[C@H](O)[C@@H](C)[C@@H](O)[C@@H](C)[C@H](OC(=O)C[n+]2ccccc2)[C@@H]1C)C4=O [Compound 37],0.25,,2,,,,,0.004,,
"CO[C@H]1/C=C/O[C@@]2(C)Oc3c(C)c(O)c4c(O)c(c(/C=N/N5CCN(C)CC5)c(O)c4c3C2=O)NC(=O)/C(C)=C\C=C\[C@H](C)[C@H](O)[C@@H](C)[C@@H](O)[C@@H](C)[C@H](OC(C)=O)[C@@H]1C [Rifampicin, reference compound]",,,,> 32,,,,,,
CO[C@H]1/C=C/O[C@@]2(C)Oc3c(C)c(O)c4c(c3C2=O)C2=NC3(CCN(CC(C)C)CC3)NC2=C(NC(=O)/C(C)=C\C=C\[C@H](C)[C@H](O)[C@@H](C)[C@@H](O)[C@@H](C)[C@H](OC(=O)CNCCN2CCN(C)CC2)[C@@H]1C)C4=O [Compound 9],0.06,,2,,,,,≤ 0.002,,
CO[C@H]1/C=C/O[C@@]2(C)Oc3c(C)c(O)c4c(c3C2=O)C2=NC3(CCN(CC(C)C)CC3)NC2=C(NC(=O)/C(C)=C\C=C\[C@H](C)[C@H](O)[C@@H](C)[C@@H](O)[C@@H](C)[C@H](OC(=O)CN2CCC(C(O)c3nccn3C)CC2)[C@@H]1C)C4=O (stereo partly shown) [Compound 23],0.125,,1,,,,,0.004,,
CO[C@H]1/C=C/O[C@@]2(C)Oc3c(C)c(O)c4c(c3C2=O)C2=NC3(CCN(CC(C)C)CC3)NC2=C(NC(=O)/C(C)=C\C=C\[C@H](C)[C@H](O)[C@@H](C)[C@@H](O)[C@@H](C)[C@H](OC(=O)CN2CCN(c3ccccc3)CC2)[C@@H]1C)C4=O [Compound 7],0.5,,0.5,,,,,0.06,,
CO[C@H]1/C=C/O[C@@]2(C)Oc3c(C)c(O)c4c(c3C2=O)C2=NC3(CCN(CC(C)C)CC3)NC2=C(NC(=O)/C(C)=C\C=C\[C@H](C)[C@H](O)[C@@H](C)[C@@H](O)[C@@H](C)[C@H](OC(=O)CN2CC(n3cccc3)C2)[C@@H]1C)C4=O [Compound 32],0.03,,2,,,,,0.008,,
CO[C@H]1/C=C/O[C@@]2(C)Oc3c(C)c(O)c4c(c3C2=O)C2=NC3(CCN(CC(C)C)CC3)NC2=C(NC(=O)/C(C)=C\C=C\[C@H](C)[C@H](O)[C@@H](C)[C@@H](O)[C@@H](C)[C@H](OC(=O)CNCCCN2CCOCC2)[C@@H]1C)C4=O [Compound 11],0.06,,2,,,,,0.008,,
